Experiment [1] concerns rice seeds (variety: Koshihikari). As to the kind of experiment: Test on acceleration of rice root growth and effect of growing vigourous seedlings. It counts as in vivo. Conditions: for Seminal Root Length: paper filter, 25° C. How it is done: A paper filter was spread in a plastic cup and impregnated with 10 ml of each of the chemical solutions prepared in Example 1 or Comparative Example 1. In non-treatment, water was used in place of the chemical solutions. In treatment plots, 1 replication was provided for each concentration; in the non-treatment plots, 2 replications were provided. Ten rice seeds (variety: Koshihikari) were sown on each plot of the paper filter and cultivated in a growth chamber at 25° C., and the length of roots was measured after 5 and 7 days. The average of measured values excluding the maximum and minimum values was calculated. The ratio (%) of the average value in each treatment plot to the average value in the non-treatment plots was calculated.

For experiment [2], the system named is cucumber (Variety:Sagamihanjiro-fushinari). The experiment can be described thus: Test on acceleration of growth of aboveground/underground part of cucumber and effect of growing vigourous seedlings. It counts as in vivo. The following applies: after 7 days, dilution 708, active ingredient 250 ppm. How it is done:
Seedling-raising culture soil for gardening was placed in a 12 -cm-by-20 -cm plastic pot 10 cm in depth, and 5 seeds of cucumber (Variety:Sagamihanjiro-fushinari) were sown in the soil. Thereinto was uniformly irrigated 500 ml of each chemical solution prepared in Example 1 or Comparative Example 1. Water was used in place of each chemical solution in the non-treatment plots. Each plot has 3 replications. The above-ground and underground parts of the seedlings germinated and grown after 7 days were measured for length. The ratio (%) of the average value in each treatment plot to the average value in the non-treatment plot was calculated.

The mark [3] stands for this setting: After 5 Days, dilution 708, active ingredient 250 ppm.
Where [4] appears, read: After 5 Days, dilution 2832, active ingredient 62.5 ppm.
The mark [5] stands for this setting: After 5 Days, dilution 11328, active ingredient 15.6 ppm.
Where [6] appears, read: After 7 Days, dilution 2832, active ingredient 62.5 ppm.
The mark [7] stands for this setting: After 7 Days, dilution 11328, active ingredient 15.6 ppm.

Experimental findings from patent publication US20160081338A1, “PLANT GROWTH ACCELERATOR” (Nippon Soda Co., Ltd., priority 2012, published 2016) are described below.

Regarding `Cc1c(Br)c2ccc(F)cc2n1S(=O)(=O)c1ncn(S(=O)(=O)N(C)C)n1` [Amisulbrom, 3-(3-bromo-6-fluoro-2-methylindol-1-ylsulfonyl)-N,N-dimethyl-1H-1,2,4-triazole-1-sulfonamide], the “Seminal Root Length To Non-treatment” value in experiment [1] (setting [3]) is reported as 120%; in experiment [1] (setting [4]), 139%; in experiment [1] (setting [5]), 129%; in experiment [1] (setting [6]) it was 176%; in experiment [1] (setting [7]), 154%; in experiment [1] (after 7 days, dilution 708, active ingredient 250 ppm), 127%. Besides, the “Seminal Root Length” value in experiment [1] (setting [3]) was determined as 2.46 cm; in experiment [1] (setting [4]), 2.85 cm; in experiment [1] (setting [5]), 2.65 cm; in experiment [1] (After 7 Days, dilution 708, active ingredient 250 ppm), 2.91 cm; in experiment [1] (setting [6]), 4.04 cm; in experiment [1] (setting [7]) it was 3.53 cm. Also, in experiment [2], the “Above-ground Part Length To Non-treatment” value is given as 108%. For the same compound, the “Under-ground Part Length To Non-treatment” value in experiment [2] amounted to 117%. In experiment [2] (500 ml irrigated into soil), the “Above-ground Part Length” value is 2.2 cm. For the same compound, the “Under-ground Part Length” value in experiment [2] (500 ml irrigated into soil) is 4.3 cm.
